This is an account of results in PubChem BioAssay (NCI).

Each structure is given as a SMILES string.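 Briefly, cells in 96-well plates were exposed to five compound concentrations for 48 h, and endpoints were estimated by linear interpolation. The concentration for full growth arrest is given as TGI.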

Test systems include SK-OV-3 ovarian; NCI-H23 lung; LOX IMVI melanoma; MALME-3M melanoma; SK-MEL-5 melanoma; RXF 393 renal; SF-295 CNS; COLO 205 colon; NCI-H460 lung; A498 renal; CAKI-1 renal; 786-0 renal; EKVX NSCLC; MCF7 breast; HS 578T breast; MDA-MB-435; NCI/ADR-RES ovarian.
Holding throughout (assay): NCI-60 cell line screen, 48 h

On to `COc1cc2c(cc1OC)[C@H]1C(COC(=O)c3ccccc3)CSC(=Nc3ccccc3)N1CC2` (stereo partly drawn), for which the TGI in the experiment on SK-OV-3 ovarian, in the experiment with NCI-H23 lung, with LOX IMVI melanoma, with MALME-3M melanoma, in the experiment on SK-MEL-5 melanoma and in the experiment with RXF 393 renal was greater than 100 µM each time. In addition, the TGI in the experiment with SF-295 CNS, in the experiment on COLO 205 colon, in the experiment on NCI-H460 lung, with A498 renal, with CAKI-1 renal and with 786-0 renal was greater than 100 µM each time. Also, the TGI in the experiment on EKVX NSCLC is greater than 100 µM.
Take `CC1OC(OC2C(OC(=O)[C@@H]3CC(C)(C)C[C@@H]4C5=CC[C@@H]6[C@@]7(C)C[C@H](O)[C@H](OC8OC(CO)C(O)C(O)C8O)[C@@](C)(CO)C7[C@H](O)C[C@@]6(C)[C@]5(C)C[C@@H](O)[C@H]43)OCC(O)C2O)C(O)C(O)C1O` (stereo partly drawn): the TGI in the experiment on SK-OV-3 ovarian, with MCF7 breast, in the experiment on HS 578T breast, with NCI-H23 lung, in the experiment with LOX IMVI melanoma and in the experiment with SK-MEL-5 melanoma was greater than 15 µM in each case. In addition, the TGI in the experiment on RXF 393 renal, with SF-295 CNS, in the experiment with COLO 205 colon, with NCI-H460 lung, in the experiment with MDA-MB-435 and with CAKI-1 renal was greater than 15 µM in each case. Also, the TGI with 786-0 renal, in the experiment with EKVX NSCLC and with NCI/ADR-RES ovarian was greater than 15 µM each time.
Consider `CC(O)c1ccc[n+](Cc2ccccc2)c1` (stereo not drawn), for which the TGI in the experiment on SK-OV-3 ovarian, with NCI-H23 lung, in the experiment on LOX IMVI melanoma, in the experiment with MALME-3M melanoma, with SK-MEL-5 melanoma and with RXF 393 renal was greater than 400 µM in each case. In addition, the TGI with SF-295 CNS, in the experiment with COLO 205 colon, in the experiment with NCI-H460 lung, in the experiment with CAKI-1 renal, in the experiment on 786-0 renal and with EKVX NSCLC was greater than 400 µM throughout.
For the compound `CCCCCCCCCCCCCCCCOCC(CP(=O)([O-])OCC[n+]1ccccc1)OC` (stereo not drawn), the TGI is 32.7 µM in the experiment with SK-OV-3 ovarian; 14.8 µM in the experiment on NCI-H23 lung; 32.8 µM with MALME-3M melanoma; 27.7 µM in the experiment with SK-MEL-5 melanoma; 15.4 µM in the experiment with SF-295 CNS; 20.5 µM in the experiment with COLO 205 colon. The TGI was 25.5 µM in the experiment on A498 renal, 22.2 µM in the experiment with CAKI-1 renal, 28.7 µM in the experiment on 786-0 renal and 34.7 µM in the experiment on EKVX NSCLC.
As to `COc1cc([C@H]2CC(=O)C[C@H](c3cc(OC)c(OC)c(OC)c3)C23C(=O)c2ccccc2C3=O)cc(OC)c1OC`, the TGI in the experiment on SK-OV-3 ovarian, in the experiment on MCF7 breast, with HS 578T breast, with NCI-H23 lung, in the experiment with MALME-3M melanoma and in the experiment with SK-MEL-5 melanoma was greater than 100 µM in each case. Further, the TGI is 88.7 µM in the experiment with RXF 393 renal; greater than 100 µM with SF-295 CNS; greater than 100 µM with COLO 205 colon; greater than 100 µM in the experiment with NCI-H460 lung; greater than 100 µM in the experiment with MDA-MB-435; greater than 100 µM in the experiment on CAKI-1 renal. For the same compound, the TGI in the experiment with 786-0 renal, with EKVX NSCLC and in the experiment with NCI/ADR-RES ovarian was greater than 100 µM throughout.
`N#CCCN(c1ccc(C=Nc2ccccc2Cl)cc1)S(=O)(=O)c1ccccc1`: the TGI with SK-OV-3 ovarian, in the experiment on NCI-H23 lung, in the experiment on LOX IMVI melanoma, with MALME-3M melanoma, in the experiment on SK-MEL-5 melanoma and in the experiment with RXF 393 renal was greater than 100 µM in each case. Moreover, the TGI in the experiment on SF-295 CNS, with COLO 205 colon, in the experiment on NCI-H460 lung, in the experiment on A498 renal, in the experiment on CAKI-1 renal and in the experiment on 786-0 renal was greater than 100 µM throughout. The same compound came in with a TGI in the experiment with EKVX NSCLC greater than 100 µM.
With `CC1=NN(C(=O)CC(=O)NC(=O)CC(=O)Nc2ccccc2F)C(=O)C1N=Nc1ccc([N+](=O)[O-])cc1` (stereo not drawn), the TGI in the experiment on SK-OV-3 ovarian was greater than 100 µM; in the experiment with NCI-H23 lung, greater than 100 µM; with LOX IMVI melanoma, 35.8 µM; in the experiment with MALME-3M melanoma, greater than 100 µM; with SK-MEL-5 melanoma it was greater than 100 µM; with SF-295 CNS, greater than 100 µM. Further, the TGI is 69.2 µM in the experiment on COLO 205 colon; greater than 100 µM in the experiment with NCI-H460 lung; 94.8 µM in the experiment on A498 renal; greater than 100 µM in the experiment with CAKI-1 renal; 64.6 µM in the experiment on 786-0 renal; 96.2 µM with EKVX NSCLC.
With `Cn1ccc2c(C(=O)c3ccccc3)cccc2c1=O`, the TGI is greater than 100 µM in the experiment with SK-OV-3 ovarian; greater than 100 µM in the experiment with LOX IMVI melanoma; greater than 100 µM in the experiment on MALME-3M melanoma; greater than 100 µM with SK-MEL-5 melanoma; greater than 100 µM in the experiment on RXF 393 renal; 66.9 µM in the experiment with SF-295 CNS. Also, the TGI in the experiment with COLO 205 colon, in the experiment on NCI-H460 lung, in the experiment with CAKI-1 renal, with 786-0 renal and with EKVX NSCLC was greater than 100 µM each time.
Turning to `O=C(O)CCc1cccc2c1oc1c(CCC(=O)O)cccc12`, the TGI with SK-OV-3 ovarian, in the experiment on NCI-H23 lung, with LOX IMVI melanoma, with MALME-3M melanoma, in the experiment on SK-MEL-5 melanoma and with RXF 393 renal was greater than 100 µM each time. Further, the TGI with SF-295 CNS, in the experiment with COLO 205 colon, in the experiment on NCI-H460 lung, in the experiment on A498 renal, in the experiment with CAKI-1 renal and with 786-0 renal was greater than 100 µM throughout.
Regarding `CC(=O)N1C(NN(C)C)CCN1c1ccccc1` (stereo not drawn), the TGI in the experiment with SK-OV-3 ovarian, with MCF7 breast, with NCI-H23 lung, with MALME-3M melanoma, in the experiment on SK-MEL-5 melanoma and in the experiment on RXF 393 renal was greater than 10 µM throughout. Moreover, the TGI in the experiment on SF-295 CNS, in the experiment with COLO 205 colon, in the experiment with MDA-MB-435, with CAKI-1 renal, in the experiment on 786-0 renal and in the experiment with EKVX NSCLC was greater than 10 µM in each case.
As to `CC(=O)C(CN(Cc1ccccc1)Cc1ccccc1)C(c1ccccc1)c1c(O)c2ccccc2oc1=O` (stereo not drawn), the TGI in the experiment on SK-OV-3 ovarian, in the experiment with NCI-H23 lung, with LOX IMVI melanoma, in the experiment with MALME-3M melanoma, with SK-MEL-5 melanoma and with RXF 393 renal was greater than 100 µM throughout. Also, the TGI in the experiment on SF-295 CNS, with NCI-H460 lung, in the experiment with A498 renal, in the experiment on CAKI-1 renal, in the experiment with 786-0 renal and in the experiment on EKVX NSCLC was greater than 100 µM each time.
As for `COC(=O)NC12CC3CC(CC(F)(C3)C1)C2`, the TGI in the experiment with SK-OV-3 ovarian, in the experiment with NCI-H23 lung, with LOX IMVI melanoma, in the experiment on MALME-3M melanoma, with RXF 393 renal and in the experiment with COLO 205 colon was greater than 100 µM each time. Further, the TGI in the experiment with NCI-H460 lung, with A498 renal, with 786-0 renal and in the experiment with EKVX NSCLC was greater than 100 µM throughout.
`CC(C)C(Sc1nc(-c2ccccc2)c(-c2ccccc2)[nH]1)C(=O)NN` (stereo not drawn): the TGI with SK-OV-3 ovarian, with NCI-H23 lung, with LOX IMVI melanoma, with MALME-3M melanoma, in the experiment with SK-MEL-5 melanoma and in the experiment on RXF 393 renal was greater than 100 µM throughout. For the same compound, the TGI in the experiment with SF-295 CNS, in the experiment with COLO 205 colon, in the experiment with NCI-H460 lung, with A498 renal, in the experiment with CAKI-1 renal and in the experiment with 786-0 renal was greater than 100 µM each time.
On to `CN(C)CC1CCCC(CN(C)C)C1=NOC(=O)c1ccccc1` (stereo not drawn), for which the TGI in the experiment on SK-OV-3 ovarian, in the experiment with NCI-H23 lung, with LOX IMVI melanoma, in the experiment with MALME-3M melanoma, with SK-MEL-5 melanoma and in the experiment on SF-295 CNS was greater than 100 µM each time. The TGI in the experiment on COLO 205 colon, in the experiment on NCI-H460 lung, in the experiment on A498 renal, in the experiment on 786-0 renal and with EKVX NSCLC was greater than 100 µM in each case.
For `COc1ccc(N2C(=O)C3c4[nH]c5ccccc5c4C4CC(C)CC(C)C4C3C2=O)cc1` (stereo not drawn), the TGI in the experiment on SK-OV-3 ovarian, with NCI-H23 lung, with MALME-3M melanoma, in the experiment with SK-MEL-5 melanoma, in the experiment on RXF 393 renal and in the experiment on SF-295 CNS was greater than 100 µM throughout. The TGI in the experiment on COLO 205 colon, with A498 renal, with 786-0 renal and in the experiment on EKVX NSCLC was greater than 100 µM in each case.
Take `COc1ccc2c(c1)Oc1cc(O)ccc1[C@@H]2c1ccccc1C(=O)NC(C)c1ccccc1` (stereo partly drawn): the TGI in the experiment on SK-OV-3 ovarian stood at 49.1 µM; in the experiment on NCI-H23 lung, 35.5 µM; with LOX IMVI melanoma, 30.4 µM; with MALME-3M melanoma it was 31.3 µM; in the experiment on SK-MEL-5 melanoma it was 32.2 µM; in the experiment with RXF 393 renal it was 29.9 µM. For the same compound, the TGI in the experiment with SF-295 CNS is 28.6 µM; in the experiment on COLO 205 colon, 32.9 µM; with NCI-H460 lung it was 27.4 µM; with A498 renal it was 32.1 µM; in the experiment on CAKI-1 renal, 42.2 µM; in the experiment with 786-0 renal, 27.9 µM. The same compound came in with a TGI in the experiment with EKVX NSCLC of 31.5 µM.
